Type in all cases: cell-based
Test [1] deals with T1, LPA receptor LPAR5 (Homo sapiens, UniProt Q9H1C0).
T1 construct: two cell lines were used with high LPAR5 expression, the human mast cell line HMC-1; endogenous in cells; host or cells: HMC-1 human mast cell line
The test can be described thus: FLIPR assay, intracellular Ca2+ release in human mast cell line HMC-1. As to conditions: human mast cell line HMC-1, LPA-stimulated Ca2+ release, compound added 10 minutes prior LPA. The text has this:
(§1) B) Use of the Fluorometric Imaging Plate Reader (FLIPR) Assay for the Determination of Intracellular Ca^2+ Release in Human Mast Cell Line HMC-1 and the Murine Microglia Cell Line BV-2
(§2) The ability of the compounds of the formula I to inhibit or bind the LPA receptor LPAR5 can be assessed by determining the intracellular Ca^2+ release in human or animal cells. For the analysis of activating potential of LPA and the inhibitory effects of compounds of the formula I two cell lines were used with high LPAR5 expression, the human mast cell line HMC-1 and the murine microglia cell line BV-2 (FIGS. 1 and 2). For the FLIPR assay using human mast cells in a 96-well-format, HMC-1 suspension cells from flask culture were harvested, resuspended and counted. 14×10^6 HMC-1 cells were transferred into a new 50 ml tube, centrifuged for 3 minutes at 540×g. The resulting cell pellet at the bottom of the tube was resuspended with 15 ml loading buffer (loading buffer contained HBSS buffer (pH 7.4), 0.1% BSA (bovine serum albumin), 2 μM FLUO-4 dye; HBSS buffer (pH 7.4) contained 1×HBSS, 20 mM HEPES, 0.01% Pluronic F-127, 2.5 mM Probenicid).
Cells in loading buffer were incubated for 45-60 minutes at 37° C. After incubation cells were centrifuged for 3 minutes at 540×g and resuspended with 21 ml of HBSS buffer (pH 7.4). Each well of a poly-D-lysine coated 96-well-plate was filled with 150 μl cell solution, an equivalent of 100 000 cells/well. The 96-well-plate was centifuged for 2 minutes at 100×g (without brake) prior a recovery time of 30 minutes at 37° C. After this procedure cells were stimulated with LPA (in HBSS pH 7.4 and 0.1% BSA) to determine the EC50 of LPA in HMC-1 cells. For the determination of the inhibitory effect of compounds of the formula I, test compounds were added to the cells in the 96-well-plate 10 minutes prior the addition of LPA. Results of the assay are expressed as % activation, and are calculated using maximum peak of activation (Amax). […]

Test [2] concerns the target T2, platelet LPA receptor LPAR5 (Homo sapiens, UniProt Q9H1C0).
T2 construct: the cellular pellet, consisting of human blood platelets was then dissolved in 10 ml buffer T; endogenous in cells; host or cells: washed human blood platelets from healthy volunteers
Briefly: Aggregation assay for washed human blood platelets (LPA-induced). The conditions noted are these: reduction of maximal aggregation, 5 min preincubation at 37° C. Here is the method: A) Aggregation Assay for Washed Human Blood Platelets (Thrombocytes)
Whole blood was collected from healthy volunteers using 3×20 ml syringes containing each 1/10 volume of buffered citrate. The anticoagulated whole blood was transferred into 50 ml polypropylene conical tubes (30 ml per tube). The tubes were centrifuged for 10 minutes at 150×g at room temperature without using the centrifuge brake. This procedure results in a lower phase of cellular components and a supernatant (upper phase) of platelet rich plasma (PRP). The PRP phase was collected from each tube and pooled for each donor. […] The platelet concentration was determined using a ABX Micros 60 counter. […] Platelet concentration in this solution was determined and buffer T was added to obtain a final concentration of 3.5×10^5 platelets per ml.
After 10 minutes at room temperature, 1 μl PGI2 per ml platelet solution was added and distributed into new 10 ml tubes. […] Aggregation was measured over 6 minutes at 37° C. with 1200 rpm (revolutions per minute) stirring. Results of the assay are expressed as % activation, and are calculated using maximum aggregation (Tmax) or area under curve (AUC) of the absorbance over 6 minutes. The inhibitory effect (IC50) of the test compounds was determined as the reduction of the maximal aggregation. […]

The target of test [3] is T3, LPA receptor LPAR5 (Mus musculus, UniProt Q149R9).
T3 construct: two cell lines were used with high LPAR5 expression, the human mast cell line HMC-1 and the murine microglia cell line BV-2; endogenous in cells; host or cells: BV-2 murine microglia cell line
Briefly: FLIPR assay, intracellular Ca2+ release in murine microglia cell line BV-2. The conditions noted are these: murine microglia cell line BV-2, LPA-stimulated Ca2+ release, compound added 10 minutes prior LPA.
From the text: as §1, §2
Cells in loading buffer were incubated for 45-60 minutes at 37° C. […] Results of the assay are expressed as % activation, and are calculated using maximum peak of activation (Amax). […]

T1 sequence (Q9H1C0 whole entry): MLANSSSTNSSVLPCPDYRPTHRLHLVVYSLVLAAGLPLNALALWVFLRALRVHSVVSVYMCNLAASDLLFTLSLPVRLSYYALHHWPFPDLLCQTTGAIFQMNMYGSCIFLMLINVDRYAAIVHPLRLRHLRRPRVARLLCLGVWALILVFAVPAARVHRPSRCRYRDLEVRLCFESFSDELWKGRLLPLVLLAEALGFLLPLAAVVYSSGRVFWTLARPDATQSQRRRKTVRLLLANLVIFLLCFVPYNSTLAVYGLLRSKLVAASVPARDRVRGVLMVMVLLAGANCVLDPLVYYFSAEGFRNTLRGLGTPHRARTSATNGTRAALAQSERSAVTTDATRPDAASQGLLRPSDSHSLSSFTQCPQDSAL
T2 sequence (Q9H1C0 whole entry): as above
T3 sequence (Q149R9 whole entry): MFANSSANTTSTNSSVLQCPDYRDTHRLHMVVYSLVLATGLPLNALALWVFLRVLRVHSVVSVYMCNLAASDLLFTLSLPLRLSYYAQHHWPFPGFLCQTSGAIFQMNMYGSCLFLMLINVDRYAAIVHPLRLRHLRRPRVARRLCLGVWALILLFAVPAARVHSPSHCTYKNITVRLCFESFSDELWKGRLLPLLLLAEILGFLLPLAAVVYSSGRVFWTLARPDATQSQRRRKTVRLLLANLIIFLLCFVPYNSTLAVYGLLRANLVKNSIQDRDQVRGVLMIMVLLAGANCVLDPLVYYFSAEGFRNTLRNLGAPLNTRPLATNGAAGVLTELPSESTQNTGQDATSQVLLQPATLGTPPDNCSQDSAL

In general, IC50 refers to the concentration that gives 50% inhibition. Read a low IC50 as greater potency in that assay. Compound `Cc1nc(-c2ccc(Cl)cc2)c(-c2ccc(Cl)cc2Cl)cc1COC(C)(C)C(=O)NCCCC(=O)O` [Example 15, 4-{2-[6-(4-Chloro-phenyl)-5-(2,4-dichloro-phenyl)-2-methyl-pyridin-3-ylmethoxy]-2-methyl-propionylamino}-butyric acid] came in with an IC50 in test [1] of 1.8 µM. In the case of `Cc1nc(-c2ccc(C(F)(F)F)cc2)c(-c2ccc(Cl)cc2Cl)cc1COC(C)C(=O)Nc1ccc(C(=O)O)cc1` (centres unmarked) [Example 1, 4-{2-[5-(2,4-Dichloro-phenyl)-2-methyl-6-(4-trifluoromethyl-phenyl)-pyridin-3-ylmethoxy]-propionylamino}-benzoic acid], in test [1], half-maximal inhibition (IC50) required 3.7 µM.

With `Cc1nc(-c2ccc(Cl)cc2)c(-c2ccc(Cl)cc2Cl)cc1COC(C)(C)C(=O)NCc1ccc(C(=O)O)cc1` [Example 14, 4-({2-[6-(4-Chloro-phenyl)-5-(2,4-dichloro-phenyl)-2-methyl-pyridin-3-ylmethoxy]-2-methyl-propionylamino}-methyl)-benzoic acid], the IC50 in test [2] came to 3.6 µM; in test [1], 0.13 µM; in test [3], 3.2 µM.

Values taken from patent US9346757B2, “Pyridine derivatives and their use in the treatment of conditions associated with pathological thrombus formation” (SANOFI, priority 2012, dated 2016).
